Experimental data published in paper PMC12142043, “Cell-based high-content approach for SARS-CoV-2 neutralization identifies unique monoclonal antibodies and PI3K pathway inhibitors” (Frontiers in Cell and Developmental Biology, 2025).

Test system: SARS-CoV-2 (USA-WA1/2020) in Calu-3 cells
Assay type: cell-based
Conditions: Calu-3, 48 h; for dsRNA signal, AU High: high dose (10 µM); for dsRNA signal, AU Low: low dose (100 nM)

Row | Structure (SMILES) | dsRNA signal, AU High [AU] | dsRNA signal, AU Low [AU]
1 | COC(=O)Nc1nc2ccc([S+]([O-])c3ccccc3)cc2[nH]1 (stereo not shown) [Oxfendazole] | 20012.9 | 47370.5
2 | COc1cccc(-c2cc(=O)c3ccccc3o2)c1N [PD98059] | 33353.3 | 27955.5
3 | COc1cc2ncnc(Nc3cccc(Br)c3)c2cc1OC.Cl [PD153035 hydrochloride] | 1669.4 | 28866.3
4 | O=C(NOCC1CC1)c1ccc(F)c(F)c1Nc1ccc(I)cc1Cl [PD184352 (CI-1040)] | 0.0 | 41067.4
5 | O=C(NOCC(O)CO)c1cc(Br)c(F)c(F)c1Nc1ccc(I)cc1F (stereo not shown) [PD318088] | 9157.7 | 11553.5
6 | O=C(NOC[C@H](O)CO)c1ccc(F)c(F)c1Nc1ccc(I)cc1F [PD0325901] | 5022.8 | 48059.9
7 | O=[N+]([O-])c1ccc(-c2nc(-c3ccncc3)c(-c3ccc(F)cc3)[nH]2)cc1 [PD 169316] | 4123.0 | 13218.6
8 | CCN(CC)CCCCNc1ncc2cc(-c3cc(OC)cc(OC)c3)c(NC(=O)NC(C)(C)C)nc2n1 [PD 173074] | 6568.6 | 3359.6
9 | Cc1cc(CS(=O)(=O)c2ccccc2)cc(OCc2ccc(CN3CCC[C@@H]3CO)cc2)c1 [PF-543] | 28127.6 | 66805.4
10 | Cn1cc(-c2[nH]c3cc(NC(=O)[C@H](N)C4CCCCC4)cc4c3c2C=NNC4=O)cn1 [PF-477736] | 45938.3 | 24364.8
11 | CN(c1ncccc1CNc1nc(Nc2ccc3c(c2)CC(=O)N3)ncc1C(F)(F)F)S(C)(=O)=O [PF-562271] | 0.0 | 690.0
12 | Nc1nccc(-c2c(-c3ccc(F)cc3)ncn2C2CCCCC2)n1 [PF-670462] | 1350.7 | 18716.0
13 | OCCn1cc(-c2cnc3nnn(Cc4ccc5ncccc5c4)c3n2)cn1 [PF-04217903] | 9610.7 | 2049.9
14 | N#Cc1cccc(-c2c[nH]c3ncnc(N4CCOCC4)c23)c1 [PF-06447475] | 53174.2 | 40604.3
15 | CNC(=O)c1ccc(C)c(-n2c(C)cc(OCc3ccc(F)cc3F)c(Br)c2=O)c1 [PH-797804] | 733.9 | 57938.0
16 | Cc1[nH]c(/C=C2\C(=O)Nc3ccc(S(=O)(=O)Cc4c(Cl)cccc4Cl)cc32)c(C)c1C(=O)N1CCC[C@@H]1CN1CCCC1 [PHA-665752] | 34815.2 | 11571.8
17 | Oc1cccc(-c2nc(N3CCOCC3)c3oc4ncccc4c3n2)c1 [PI-103] | 0.0 | 40731.1
18 | Fc1ccc2[nH]ccc2c1-c1nc(N2CCOCC2)c2sc(CN3CCN(CC4CC4)CC3)cc2n1 [PI-3065] | 625.6 | 44145.1
19 | Cc1ccc([N+](=O)[O-])cc1S(=O)(=O)N(C)/N=C/c1cnc2ccc(Br)cn12 [PIK-75] | 6934.4 | 3754.5
20 | FC(F)(F)c1ccc(CNc2ccc(Cc3c[nH]c4ncccc34)cn2)cc1 [PLX647] | 24285.0 | 52941.2
21 | CC(C)n1nc(-c2cc3cc(O)ccc3[nH]2)c2c(N)ncnc21 [PP242] | 7321.2 | 32614.7

Row | Structure (SMILES) | dsRNA signal, AU High [AU] | dsRNA signal, AU Low [AU]
22 | CC(C)(C)n1nc(-c2ccc(Cl)cc2)c2c(N)ncnc21 [PP 2 (AG 1879)] | 53589.5 | 40414.9
23 | CCOC(=O)c1ccc(N2NC(=O)/C(=C/c3ccc([N+](=O)[O-])o3)C2=O)cc1 [PYR-41] | 41809.3 | 6659.6
24 | COc1ccc(COc2cc3oc(=O)c4cc(C(C)O)ccc4c3cc2OC)cc1 (stereo not shown) [Palomid 529] | 5778.6 | 4358.2
25 | Cc1ccc(Nc2nccc(N(C)c3ccc4c(C)n(C)nc4c3)n2)cc1S(N)(=O)=O [Pazopanib (GW-786034)] | 41143.8 | 22671.3
26 | FC(F)(F)c1ccc(CNc2ccc(Cc3c[nH]c4ncc(Cl)cc34)cn2)cn1 [Pexidartinib (PLX3397)] | 64762.3 | 40586.0
27 | Oc1cc(O)cc(/C=C/c2ccc(O)c(O)c2)c1 [Piceatannol] | 12025.1 | 48262.2
28 | O=C(NC[C@H](O)CO)c1ccncc1Nc1ccc(I)cc1F [Pimasertib (AS-703026)] | 11387.3 | 3667.2
29 | O=C(O)C[C@H](O)C[C@H](O)/C=C/c1c(C2CC2)nc2ccccc2c1-c1ccc(F)cc1 [Pitavastatin Calcium] | 16024.1 | 23195.0
30 | O=C(O)C[C@H](O)C[C@H](O)/C=C/c1c(C2CC2)nc2ccccc2c1-c1ccc(F)cc1 [Pitavastatin] | 8150.8 | 10215.5
31 | CC1=CC(=O)C(C(C)C)=C/C1=N/OC(=O)c1ccccc1C [Poloxin] | 3268.7 | 59035.4
32 | C=CC(=O)N1CCC(Oc2cc3c(Nc4ccc(Cl)c(Cl)c4F)ncnc3cc2OC)CC1 [Poziotinib] | 19439.7 | 63934.7
33 | CC(C)[C@H](CO)Nc1nc(Nc2cccc(Cl)c2)c2ncn(C(C)C)c2n1 [Purvalanol A] | 51443.1 | 865.0
34 | CC(C)[C@H](CO)Nc1nc(Nc2ccc(C(=O)O)c(Cl)c2)c2ncn(C(C)C)c2n1 [Purvalanol B] | 4137.6 | 7805.6
35 | O=c1c(O)c(-c2ccc(O)c(O)c2)oc2cc(O)cc(O)c12 [Quercetin dihydrate] | 25411.6 | 6435.1
36 | CC(C)(C)c1cc(NC(=O)Nc2ccc(-c3cn4c(n3)sc3cc(OCCN5CCOCC5)ccc34)cc2)no1 [Quizartinib (AC220)] | 4499.9 | 17036.5
37 | COc1cc(Nc2ncc(F)c(Nc3ccc4c(n3)NC(=O)C(C)(C)O4)n2)cc(OC)c1OC [R406 (free base)] | 42129.8 | 55638.2
38 | COc1ccc(/C=C(\C#N)c2cccnc2)cc1OC [RG 13022] | 36154.5 | 2414.3
39 | O=C(NCc1cccc(O)c1)Nc1nc(-c2ccncc2)cs1 [RKI-1447] | 1722.0 | 7250.9
40 | CN1CCN(c2ccc(Nc3cc(-c4cccc(-n5ccc6cc(C7CC7)cc(F)c6c5=O)c4CO)cn(C)c3=O)nc2)CC1 [RN486] | 3432.0 | 25024.9
41 | Cc1cn(-c2cc(NC(=O)c3ccc(C)c(Nc4nccc(-c5cnccn5)n4)c3)cc(C(F)(F)F)c2)cn1 [Radotinib(IY-5511)] | 11726.8 | 29413.0
